Measured values as given in PubChem BioAssay (NCI).
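How tested: cells in 96-well plates exposed to compound for 48 hours at five concentrations. GI50 is the concentration that inhibits growth by half. TGI is the concentration that stops growth completely.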

Columns and labels:
Experiment in all cases: inhibition of tumour cell growth, NCI panel, 48 h
786-0 renal = system: 786-0 renal
A498 renal = system: A498 renal
A549 NSCLC = system: A549 NSCLC
ACHN renal = system: ACHN renal
BT-549 breast = system: BT-549 breast
CAKI-1 renal = system: CAKI-1 renal
CCRF-CEM leukemia = system: CCRF-CEM leukemia
COLO 205 colon = system: COLO 205 colon
DU-145 prostate = system: DU-145 prostate
EKVX NSCLC = system: EKVX NSCLC
HCC-2998 colon = system: HCC-2998 colon
HCT-116 colon = system: HCT-116 colon
HCT-15 colon = system: HCT-15 colon
HL-60(TB) leukemia = system: HL-60(TB) leukemia
HOP-62 NSCLC = system: HOP-62 NSCLC
HS 578T breast = system: HS 578T breast
HT29 colon = system: HT29 colon
IGROV1 ovarian = system: IGROV1 ovarian
KM12 colon = system: KM12 colon
LOX IMVI melanoma = system: LOX IMVI melanoma
M14 melanoma = system: M14 melanoma
MALME-3M melanoma = system: MALME-3M melanoma
MCF7 breast = system: MCF7 breast
MDA-MB-231 breast = system: MDA-MB-231 breast
MDA-MB-435 = system: MDA-MB-435
MOLT-4 leukemia = system: MOLT-4 leukemia
NCI-H226 lung = system: NCI-H226 lung
NCI-H23 lung = system: NCI-H23 lung
NCI-H460 lung = system: NCI-H460 lung
NCI-H522 lung = system: NCI-H522 lung
NCI/ADR-RES ovarian = system: NCI/ADR-RES ovarian
OVCAR-4 ovarian = system: OVCAR-4 ovarian
OVCAR-5 ovarian = system: OVCAR-5 ovarian
OVCAR-8 ovarian = system: OVCAR-8 ovarian
PC-3 prostate = system: PC-3 prostate
RPMI-8226 leukemia = system: RPMI-8226 leukemia
RXF 393 renal = system: RXF 393 renal
SF-268 CNS = system: SF-268 CNS
SF-295 CNS = system: SF-295 CNS
SF-539 CNS = system: SF-539 CNS
SK-MEL-28 melanoma = system: SK-MEL-28 melanoma
SK-MEL-5 melanoma = system: SK-MEL-5 melanoma
SK-OV-3 ovarian = system: SK-OV-3 ovarian
SN12C renal = system: SN12C renal
SNB-19 CNS = system: SNB-19 CNS
SNB-75 CNS = system: SNB-75 CNS
SR leukemia = system: SR leukemia
SW-620 colon = system: SW-620 colon
T-47D breast = system: T-47D breast
TK-10 renal = system: TK-10 renal
U251 CNS = system: U251 CNS
UACC-257 melanoma = system: UACC-257 melanoma
UACC-62 melanoma = system: UACC-62 melanoma
UO-31 renal = system: UO-31 renal

In the case of `O=C(N/N=C\c1ccc(Cl)cc1)c1ccc2nc(-c3ccc(Br)cc3)[nH]c2c1`, the GI50 (786-0 renal) is reported as 1.76 µM, the TGI (786-0 renal) is reported as 3.26 µM and the GI50 (A498 renal) is reported as 1.67 µM. For the same compound, the TGI (A498 renal) was 3.68 µM, the GI50 (A549 NSCLC) was 1.75 µM and the TGI (A549 NSCLC) was 3.3 µM. It also gave a GI50 (ACHN renal) of 1.75 µM, a TGI (ACHN renal) of 3.17 µM and a GI50 (BT-549 breast) of 1.87 µM. The TGI (BT-549 breast) was 5.54 µM, the GI50 (CAKI-1 renal) was 1.6 µM and the TGI (CAKI-1 renal) was 3.1 µM. The GI50 (CCRF-CEM leukemia) was 1.9 µM, the TGI (CCRF-CEM leukemia) was 4.73 µM and the GI50 (COLO 205 colon) was 1.43 µM. The TGI (COLO 205 colon) was 2.86 µM, the GI50 (DU-145 prostate) was 1.98 µM and the TGI (DU-145 prostate) was 4.18 µM. It also gave a GI50 (EKVX NSCLC) of 2.03 µM, a TGI (EKVX NSCLC) of 4.28 µM and a GI50 (HCC-2998 colon) of 1.83 µM. It also gave a TGI (HCC-2998 colon) of 3.61 µM, a GI50 (HCT-116 colon) of 1.49 µM and a TGI (HCT-116 colon) of 2.99 µM. For the same compound, the GI50 (HCT-15 colon) was 1.52 µM, the TGI (HCT-15 colon) was 3.33 µM and the GI50 (HL-60(TB) leukemia) was 2.04 µM. It also gave a TGI (HL-60(TB) leukemia) of 5.03 µM, a GI50 (HOP-62 NSCLC) of 1.64 µM and a TGI (HOP-62 NSCLC) of 3.2 µM. For the same compound, the GI50 (HS 578T breast) was 2.19 µM, the TGI (HS 578T breast) was 5.27 µM and the GI50 (HT29 colon) was 1.04 µM. It also gave a TGI (HT29 colon) of 2.38 µM, a GI50 (IGROV1 ovarian) of 1.58 µM and a TGI (IGROV1 ovarian) of 3.41 µM. For the same compound, the GI50 (KM12 colon) was 1.86 µM, the TGI (KM12 colon) was 4.16 µM and the GI50 (LOX IMVI melanoma) was 1.49 µM. It also gave a TGI (LOX IMVI melanoma) of 3.09 µM, a GI50 (M14 melanoma) of 1.92 µM and a TGI (M14 melanoma) of 3.93 µM. It also gave a GI50 (MALME-3M melanoma) of 1.68 µM, a TGI (MALME-3M melanoma) of 3.22 µM and a GI50 (MCF7 breast) of 1.01 µM. For the same compound, the TGI (MCF7 breast) was 2.46 µM, the GI50 (MDA-MB-231 breast) was 1.9 µM and the TGI (MDA-MB-231 breast) was 3.89 µM. For the same compound, the GI50 (MDA-MB-435) was 1.52 µM, the TGI (MDA-MB-435) was 3.15 µM and the GI50 (MOLT-4 leukemia) was 1.62 µM. For the same compound, the TGI (MOLT-4 leukemia) was 4.29 µM, the GI50 (NCI-H226 lung) was 4.96 µM and the TGI (NCI-H226 lung) was 24 µM. The GI50 (NCI-H23 lung) was 1.86 µM, the TGI (NCI-H23 lung) was 4.02 µM and the GI50 (NCI-H460 lung) was 0.601 µM. For the same compound, the TGI (NCI-H460 lung) was 1.94 µM, the GI50 (NCI-H522 lung) was 1.63 µM and the TGI (NCI-H522 lung) was 3.38 µM. For the same compound, the GI50 (NCI/ADR-RES ovarian) was 2.44 µM, the TGI (NCI/ADR-RES ovarian) was 8.01 µM and the GI50 (OVCAR-4 ovarian) was 2.07 µM. It also gave a TGI (OVCAR-4 ovarian) of 4.83 µM, a GI50 (OVCAR-5 ovarian) of 1.99 µM and a TGI (OVCAR-5 ovarian) of 4.26 µM. The GI50 (OVCAR-8 ovarian) was 1.49 µM, the TGI (OVCAR-8 ovarian) was 2.88 µM and the GI50 (PC-3 prostate) was 1.58 µM. It also gave a TGI (PC-3 prostate) of 2.99 µM, a GI50 (RPMI-8226 leukemia) of 1.6 µM and a TGI (RPMI-8226 leukemia) of 3.89 µM. It also gave a GI50 (RXF 393 renal) of 1.5 µM, a TGI (RXF 393 renal) of 3.18 µM and a GI50 (SF-268 CNS) of 2.56 µM. It also gave a TGI (SF-268 CNS) of 6.87 µM, a GI50 (SF-295 CNS) of 2.07 µM and a TGI (SF-295 CNS) of 4.59 µM. It also gave a GI50 (SF-539 CNS) of 1.72 µM, a TGI (SF-539 CNS) of 3.24 µM and a GI50 (SK-MEL-28 melanoma) of 1.73 µM. The TGI (SK-MEL-28 melanoma) was 3.26 µM, the GI50 (SK-MEL-5 melanoma) was 1.85 µM and the TGI (SK-MEL-5 melanoma) was 3.63 µM. For the same compound, the GI50 (SK-OV-3 ovarian) was 1.51 µM, the TGI (SK-OV-3 ovarian) was 3.87 µM and the GI50 (SN12C renal) was 1.76 µM. The TGI (SN12C renal) was 3.49 µM, the GI50 (SNB-19 CNS) was 2.11 µM and the TGI (SNB-19 CNS) was 4.91 µM. It also gave a GI50 (SNB-75 CNS) of 1.83 µM, a TGI (SNB-75 CNS) of 4.01 µM and a GI50 (SR leukemia) of 0.895 µM. It also gave a TGI (SR leukemia) of 3.39 µM, a GI50 (SW-620 colon) of 1.6 µM and a TGI (SW-620 colon) of 3.26 µM. The GI50 (T-47D breast) was 1.58 µM, the TGI (T-47D breast) was 3.25 µM and the GI50 (TK-10 renal) was 2.07 µM. For the same compound, the TGI (TK-10 renal) was 3.89 µM, the GI50 (U251 CNS) was 1.78 µM and the TGI (U251 CNS) was 3.18 µM. It also gave a GI50 (UACC-257 melanoma) of 1.6 µM, a TGI (UACC-257 melanoma) of 3.1 µM and a GI50 (UACC-62 melanoma) of 1.85 µM. The TGI (UACC-62 melanoma) was 3.85 µM, the GI50 (UO-31 renal) was 1.45 µM and the TGI (UO-31 renal) was 2.86 µM.
